Results on 18 compounds are retold here after PubChem BioAssay AID328 (DTP/NCI, 2004).

The structures appear in SMILES notation. Values joined by “and” are separate entries in the source; they are usually repeats but may differ in a detail not shown here. Identical values can stand only once. Inconclusive results and toxic doses are left out.

The assay relates to BDF1 mice, P388 leukemia ip, median survival T/C. Briefly: NCI In Vivo Anticancer Drug Screen. Data for tumor model P388 Leukemia (intraperitoneal) in B6D2F1 (BDF1) mice. The conditions noted are these: endpoint: median survival time, higher = longer survival. An outline of the steps: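 Reported as T/C, where T is the survival measurement in dosed animals and C the same measurement in vehicle controls.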

Setting [1] is: dose: 200.0 mg/kg/injection, schedule: Q01DX009 (ip), vehicle: Klucel (hydroxypropylcellulose) (HPC).
[2] abbreviates: dose: 200.0 mg/kg/injection, schedule: Q04DX003 (ip), vehicle: Klucel (hydroxypropylcellulose) (HPC).
Where [3] appears, read: dose: 50.0 mg/kg/injection, schedule: Q04DX003 (ip), vehicle: saline with Tween-80.
Setting [4] is: dose: 100.0 mg/kg/injection, schedule: Q04DX003 (ip), vehicle: saline with Tween-80.
Setting [5] is: dose: 100.0 mg/kg/injection, schedule: Q04DX003 (ip), vehicle: Klucel (hydroxypropylcellulose) (HPC).
Setting [6] is: dose: 400.0 mg/kg/injection, schedule: Q04DX003 (ip), vehicle: Klucel (hydroxypropylcellulose) (HPC).
Setting [7] is: dose: 200.0 mg/kg/injection, schedule: Q04DX002 (ip), vehicle: saline with Tween-80.
Where [8] appears, read: dose: 100.0 mg/kg/injection, schedule: Q01DX009 (ip), vehicle: saline with Tween-80.
Setting [9] is: dose: 200.0 mg/kg/injection, schedule: Q04DX003 (ip), vehicle: saline with Tween-80.
Setting [10] is: dose: 400.0 mg/kg/injection, schedule: Q04DX003 (ip), vehicle: saline with Tween-80.
Where [11] appears, read: dose: 25.0 mg/kg/injection, schedule: Q01DX009 (ip), vehicle: saline.

For the compound `Nc1nc(N)c(-c2ccc(Cl)c(Cl)c2)c(COc2cccc(CNC(=O)c3cccc(S(=O)(=O)F)c3)c2)n1`, the T/C runs as follows: (dose: 132.0 mg/kg/injection, schedule: Q04DX003 (ip), vehicle: Klucel (hydroxypropylcellulose) (HPC)) 109 % of control; under setting [1], 150 % of control; under setting [2], 119 % of control; (dose: 300.0 mg/kg/injection, schedule: Q01DX009 (ip), vehicle: Klucel (hydroxypropylcellulose) (HPC)) 155 % of control.

Regarding `Cc1cc(C)c(S(=O)(=O)O)cc1C`, the T/C under setting [3] is 104 % of control and the T/C under setting [4] was 100 % of control.

As for `COC(=O)CCC#CC#CCCC(=O)OC`, the T/C by setting is: under setting [5], 109 % of control; under setting [2], 104 % of control; under setting [6], 109 % of control.

In the case of `CCCCCCCCCCCCCC/[N+]([O-])=C/c1ccc([N+](=O)[O-])o1`, the T/C (dose: 6.25 mg/kg/injection, schedule: Q04DX002 (ip), vehicle: saline with Tween-80) is 91 % of control; the T/C (dose: 12.5 mg/kg/injection, schedule: Q04DX002 (ip), vehicle: saline with Tween-80) was 100 % of control; the T/C (dose: 25.0 mg/kg/injection, schedule: Q04DX002 (ip), vehicle: saline with Tween-80) is 87 % of control; the T/C under setting [7] was 88 % of control.

In the case of `c1ccc2c(c1)[nH]c1c2c[n+]2c3c(cccc13)CCC2`, the T/C reads like this: (dose: 3.13 mg/kg/injection, schedule: Q01DX009 (ip), vehicle: saline) 119 % of control; (dose: 3.66 mg/kg/injection, schedule: Q01DX009 (ip), vehicle: saline) 110 % of control; (dose: 5.49 mg/kg/injection, schedule: Q01DX009 (ip), vehicle: saline) 105 % of control; (dose: 6.25 mg/kg/injection, schedule: Q01DX009 (ip), vehicle: saline) 104 % of control.

As to `N#C/C(=C/Cc1ccccc1)Nc1ccccc1`, the T/C by setting is: under setting [8], 100 % of control; under setting [4], 113 % of control; (dose: 200.0 mg/kg/injection, schedule: Q01DX009 (ip), vehicle: saline with Tween-80) 115 % of control; under setting [9], 118 % of control; (dose: 400.0 mg/kg/injection, schedule: Q01DX009 (ip), vehicle: saline with Tween-80) 115 % of control; under setting [10], 104 % of control.

Turning to `O=C(/C=N/O)/C=N/O` (tested in a mixture with another compound), the T/C reads like this: (dose: 6.0 mg/kg/injection, schedule: Q01DX009 (ip), vehicle: saline) 108 % of control; (dose: 6.0 mg/kg/injection, schedule: Q04DX003 (ip), vehicle: saline) 100 % of control; (dose: 12.0 mg/kg/injection, schedule: Q01DX009 (ip), vehicle: saline) 100 % of control; (dose: 12.0 mg/kg/injection, schedule: Q04DX003 (ip), vehicle: saline) 113 % of control; under setting [11], 100 % of control; (dose: 25.0 mg/kg/injection, schedule: Q04DX003 (ip), vehicle: saline) 95 % of control.

As to `CNC(=O)c1nc(C)c(C)[nH]c1=O`, the T/C (dose: 25.0 mg/kg/injection, schedule: Q01DX009 (ip), vehicle: water) is 97 % of control; the T/C (dose: 50.0 mg/kg/injection, schedule: Q01DX009 (ip), vehicle: water) was 90 % of control; the T/C (dose: 50.0 mg/kg/injection, schedule: Q04DX003 (ip), vehicle: water) was 103 % of control; the T/C (dose: 100.0 mg/kg/injection, schedule: Q01DX009 (ip), vehicle: water) is 99 % of control; the T/C (dose: 200.0 mg/kg/injection, schedule: Q01DX009 (ip), vehicle: water) was 90 % of control; the T/C (dose: 400.0 mg/kg/injection, schedule: Q04DX003 (ip), vehicle: water) was 100 % of control.

Consider `CS(=O)(=O)OCC(=O)NCC(O)CNC(=O)COS(C)(=O)=O`, for which the T/C is 150 % of control (dose: 78.0 mg/kg/injection, schedule: Q04DX003 (ip), vehicle: saline with Tween-80); 161 % of control (dose: 177.0 mg/kg/injection, schedule: Q04DX003 (ip), vehicle: saline with Tween-80); 231 % of control and 157 % of control (dose: 264.0 mg/kg/injection, schedule: Q04DX003 (ip), vehicle: saline with Tween-80); 209 % of control under setting [10].

With `CC(=O)N1c2ccccc2C23CCN4CC5=CCOC(O)C(C5CC42)C13` (stereo unspecified), the T/C (dose: 30.0 mg/kg/injection, schedule: Q01DX009 (ip), vehicle: saline) is 152 % of control.

In the case of `CC(C(=O)O)N1C(=O)c2ccccc2C1=O` (stereo unspecified), the T/C (dose: 100.0 mg/kg/injection, schedule: Q01DX009 (ip), vehicle: Klucel (hydroxypropylcellulose) (HPC)) is 109 % of control; the T/C under setting [5] is 100 % of control; the T/C under setting [1] was 109 % of control; the T/C under setting [2] was 104 % of control; the T/C (dose: 400.0 mg/kg/injection, schedule: Q01DX009 (ip), vehicle: Klucel (hydroxypropylcellulose) (HPC)) is 118 % of control; the T/C under setting [6] is 100 % of control.

Consider `CC1CC2CCCCN2O1` (stereo unspecified), for which the T/C reads like this: (dose: 100.0 mg/kg/injection, schedule: Q04DX002 (ip), vehicle: saline with Tween-80) 102 % of control; under setting [7], 103 % of control; (dose: 400.0 mg/kg/injection, schedule: Q04DX002 (ip), vehicle: saline with Tween-80) 105 % of control.

As for `CC1CN(N)CC(C)N1Cc1ccccc1` (stereo unspecified), the T/C is 98 % of control (dose: 3.12 mg/kg/injection, schedule: Q04DX003 (ip), vehicle: water); 104 % of control (dose: 6.25 mg/kg/injection, schedule: Q04DX003 (ip), vehicle: water); 108 % of control (dose: 12.5 mg/kg/injection, schedule: Q04DX003 (ip), vehicle: water); 113 % of control (dose: 25.0 mg/kg/injection, schedule: Q04DX003 (ip), vehicle: water).

On to `O=c1c2cccc3cccc(c32)c2nc3ccccc3n12`, for which the T/C (dose: 4.0 mg/kg/injection, schedule: Q01DX009 (ip), vehicle: saline with Tween-80) was 100 % of control; the T/C (dose: 6.0 mg/kg/injection, schedule: Q01DX009 (ip), vehicle: saline with Tween-80) is 108 % of control; the T/C (dose: 6.25 mg/kg/injection, schedule: Q04DX003 (ip), vehicle: saline with Tween-80) is 87 % of control; the T/C (dose: 12.5 mg/kg/injection, schedule: Q04DX003 (ip), vehicle: saline with Tween-80) is 95 % of control; the T/C (dose: 25.0 mg/kg/injection, schedule: Q04DX003 (ip), vehicle: saline with Tween-80) is 112 % of control.

Regarding `OCCC1(CCO)CCCCC1`, the T/C is, setting by setting: (dose: 10.0 mg/kg/injection, schedule: Q01DX009 (ip), vehicle: saline with Tween-80) 100 % of control; (dose: 20.0 mg/kg/injection, schedule: Q01DX009 (ip), vehicle: saline with Tween-80) 105 % of control; (dose: 40.0 mg/kg/injection, schedule: Q01DX009 (ip), vehicle: saline with Tween-80) 110 % of control; under setting [3], 109 % of control; under setting [4], 100 % of control.

Turning to `COc1cc(-c2ccc(Nc3ccccc3C(=O)O)c(OC)c2)ccc1N`, the T/C is 110 % of control (dose: 25.0 mg/kg/injection, schedule: Q01DX009 (ip), vehicle: saline with Tween-80); 109 % of control (dose: 33.0 mg/kg/injection, schedule: Q01DX009 (ip), vehicle: saline with Tween-80); 163 % of control (dose: 75.0 mg/kg/injection, schedule: Q01DX009 (ip), vehicle: saline with Tween-80).

`Cc1c[n+]([O-])ccc1[N+](=O)[O-]`: the T/C is, setting by setting: under setting [11], 100 % of control; (dose: 50.0 mg/kg/injection, schedule: Q01DX009 (ip), vehicle: saline) 104 % of control; (dose: 50.0 mg/kg/injection, schedule: Q04DX003 (ip), vehicle: saline) 100 % of control; (dose: 100.0 mg/kg/injection, schedule: Q04DX003 (ip), vehicle: saline) 90 % of control and 95 % of control; (dose: 150.0 mg/kg/injection, schedule: Q04DX003 (ip), vehicle: saline) 100 % of control; (dose: 200.0 mg/kg/injection, schedule: Q04DX003 (ip), vehicle: saline) 86 % of control.

Consider `COc1ccc(CSc2ncnc3nc[nH]c23)cc1`, for which the T/C is 95 % of control under setting [8], 100 % of control under setting [4], 100 % of control under setting [9] and 87 % of control under setting [10].
